Experimental data reported in patent US10407388B2, “Thiourea derivatives as activators of RORα and pharmaceutical composition containing same” (SEOUL NATIONAL UNIVERSITY R & DB FOUNDATION, priority 2011, dated 2019).

Columns and labels:
[1] = tested on: MCAD; experiment: Fatty acid oxidation gene MCAD in HepG2 cells, real-time RT-PCR; type: cell-based, human; conditions: 100 μM, 24 hours; FIG. 8
Protocol: (§1) HepG2 cells (1×10^6 cells/well) were seeded on a 60-dish and cultured overnight in a DMEM containing 10% FBS. The HepG2 cells were maintained at 37° C. in a humidification thermostat containing 5% CO2 and 95% air. After culturing, the HepG2 cells were treated with JC1-38, JC1-40, and JC1-42 at a concentration of 100 μM for 24 hours. After treatment, effects thereof on transcriptional activity were analyzed by real-time reverse transcriptase-polymerase chain reaction (real-time RT-PCR) analysis. The PCR was performed using the following primers respectively specific to MCAD, ACO1, ACO2, HMGCS2, CPT-1, and ACS, which are involved in fatty acid oxidation: […]

[2] = tested on: CPT-1; experiment: Fatty acid oxidation gene CPT-1 in HepG2 cells, real-time RT-PCR; type: cell-based, human; conditions: 100 μM, 24 hours; FIG. 8
Protocol: as §1

[3] = molecular target: T1, RORα (Homo sapiens, UniProt P35398); experiment: Transcriptional activity of RORα according to concentration, RORE-Luc reporter and Flag-RORα vector in CV-1 cells (Experimental Example 2); type: cell-based; conditions: for transcriptional activity of RORα / activity of RORα at low concentrations: 1 μM; for transcriptional activity of RORα: 10 μM, 20 μM, 50 μM, and 100 μM, 24 hours, FIG. 4; for activity of RORα at low concentrations: 10 μM, and 20 μM; for effect of increasing the activity of RORα compared with melatonin: 50 μM to 100 μM, melatonin 100 μM
T1 construct: expressed in transfected cells; host or cells: CV-1 cells (ATCC CCL-70)
T1 sequence (P35398 1-523): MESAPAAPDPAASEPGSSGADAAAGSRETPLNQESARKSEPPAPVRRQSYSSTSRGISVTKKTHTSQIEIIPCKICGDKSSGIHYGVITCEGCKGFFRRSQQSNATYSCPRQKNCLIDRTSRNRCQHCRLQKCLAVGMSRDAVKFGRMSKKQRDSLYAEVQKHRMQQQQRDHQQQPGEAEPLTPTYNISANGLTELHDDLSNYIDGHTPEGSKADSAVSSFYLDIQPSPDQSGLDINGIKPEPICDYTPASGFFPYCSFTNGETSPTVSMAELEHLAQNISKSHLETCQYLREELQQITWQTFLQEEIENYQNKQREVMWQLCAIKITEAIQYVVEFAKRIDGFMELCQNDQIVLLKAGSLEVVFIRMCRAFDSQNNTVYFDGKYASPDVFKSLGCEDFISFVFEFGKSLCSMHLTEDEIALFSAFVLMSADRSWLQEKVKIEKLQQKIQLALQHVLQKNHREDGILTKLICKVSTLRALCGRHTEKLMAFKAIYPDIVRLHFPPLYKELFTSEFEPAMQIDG
Protocol: CV-1 cells (4×10^4 cells/well) were seeded on a 24-well culture plate and cultured overnight in a DMEM containing 10% FBS. The CV-1 cells were maintained at 37° C. in a humidification thermostat containing 5% CO2 and 95% air. After culturing, the CV-1 cells were transformed with RORE-Luc reporter (0.05 μg) and Flag-RORα vector (0.005 μg) using calcium phosphate. […] Subsequently, cell lysates were collected, and luciferase activity was analyzed and determined using an analytical luminescence luminometer. The luciferase activity was standardized by β-gal activity to determine transcriptional efficiency, and data was attained as the mean and SD for two or three independent experimental results, and the results thereof are illustrated in FIG. 4.

[4] = tested on: ApoB100; experiment: VLDL secretion gene ApoB100 in HepG2 cells, RT-PCR; type: cell-based, human; conditions: 100 μM, 24 hours; FIG. 9b
Protocol: as §1, with “60-dish,” for “60-dish”, “RT-PCR” for “real-time reverse transcriptase-polymerase chain reaction (real-time RT-PCR)”, “CD36 (see FIG. 9a) involved in fatty acid uptake” for “MCAD, ACO1, ACO2, HMGCS2, CPT-1,”, “MTTP and ApoB100 (see FIG. 9b),” for “ACS,”, “the secretion of very low density lipoproteins:” for “fatty acid oxidation:”

[5] = molecular target: T1, RORα; experiment: Transcriptional activity of RORα, RORE-tk-Luc reporter in CV-1 cells (Experimental Example 1); type: cell-based; conditions: for Fold Activation: JC1 compounds 100 μM, 24 hours, luciferase activity standardized by β-gal, versus control treated only with solvent
Protocol: CV-1 cells (CCL-70) were purchased from American Type Culture Collection (ATCC). The CV-1 cells (4×10^4 cells/well) were seeded on a 24-well culture plate and cultured overnight in a Dulbecco's Modified Eagle's Medium (DMEM) containing 10% fetal bovine serum (FBS). The CV-1 cells were maintained at 37° C. in a humidification thermostat containing 5% CO2 and 95% air. After culturing, the cells were transformed with RORE-tk-Luc reporter plasmid (100 ng) and ROR expression vector (5 ng) using calcium phosphate. […]

[6] = tested on: SREBP-1; experiment: Transcriptional activity of SREBP-1, SRE-Luc reporter in HepG2 cells treated with T17; type: cell-based, human; conditions: 50 μM with 1 μM T17, 24 hours; FIG. 5b
Protocol: In addition, HepG2 cells were cultured under the same conditions, and then the HepG2 cells were transformed with SRE-Luc reporter (0.1 μg) using Welfect-EXTM Plus (WelGENE Inc., Korea). 24 hours after transformation, the HepG2 cells were treated with each of the JC1-38, JC1-40, and JC1-42 compounds at a concentration of 50 μM and 1 μM T17 (T0901317) for 24 hours. Subsequently, cell lysates were collected, and luciferase activity was analyzed and determined using an analytical luminescence luminometer. The luciferase activity was standardized by β-gal activity to determine transcriptional efficiency, and data was attained as the mean and SD for three independent experimental results, and the results thereof are illustrated in FIG. 5b.

Row | Structure (SMILES) | transcriptional activity of MCAD [1] | transcriptional activity of CPT-1 [2] | transcriptional activity of RORα [3] | activity of RORα at low concentrations [3] | effect of increasing the activity of RORα compared with melatonin [3] | transcriptional activity of ApoB100 [4] | Fold Activation [5] | transcriptional activity of SREBP-1, which had been increased by T17 [6] | activity (transcriptional activity of RORα) ([5]; 100 μM, relative to control treated only with a solvent) [%]
1 | CNC(=S)NCc1ccc(OCc2ccccc2)cc1 [Compound 40, 1-(4-benzyloxy-benzyl)-3-methyl-thiourea] | increased | increased | increased in a manner dependent on the concentration | insignificantly increased | comparable to or surpassed the effect provided by melatonin | increased | 3.6 | decreased | –
2 | CNC(=S)NCc1ccccc1-c1ccncc1 [Compound 38, 1-methyl-3-(4-pyridinyl-2-benzyl)-thiourea] | increased | increased | increased in a manner dependent on the concentration | insignificantly increased | comparable to or surpassed the effect provided by melatonin | increased | 1.9 | decreased | –
3 | CNC(=S)NCc1ccc(Oc2ccccc2)cc1 [Compound 42, 1-(4-phenoxy-benzyl)-3-methyl-thiourea] | increased | increased | increased in a manner dependent on the concentration | insignificantly increased | comparable to or surpassed the effect provided by melatonin | increased | 4.6 | decreased | 460
